Test results taken from ChEMBL document CHEMBL5465560, “Selectivity Literature for EUbOPEN Chemogenomic Library” (2024).

Columns and labels:
[1] = biological target: Non-receptor tyrosine-protein kinase TYK2 (Homo sapiens, UniProt P29597); details: at 10 µM
[2] = biological target: RAC-beta serine/threonine-protein kinase (Homo sapiens) (UniProt P31751); assay: Selectivity interaction (Millipore kinase profiler) EUB0000124b AKT2; details: at 10 µM
[3] = biological target: T1, Ephrin type-B receptor 1 (Homo sapiens) (UniProt P54762); assay: Selectivity interaction (KinomeScan (DiscoverX)) EUB0000045b EPHB1
T1 sequence (whole entry): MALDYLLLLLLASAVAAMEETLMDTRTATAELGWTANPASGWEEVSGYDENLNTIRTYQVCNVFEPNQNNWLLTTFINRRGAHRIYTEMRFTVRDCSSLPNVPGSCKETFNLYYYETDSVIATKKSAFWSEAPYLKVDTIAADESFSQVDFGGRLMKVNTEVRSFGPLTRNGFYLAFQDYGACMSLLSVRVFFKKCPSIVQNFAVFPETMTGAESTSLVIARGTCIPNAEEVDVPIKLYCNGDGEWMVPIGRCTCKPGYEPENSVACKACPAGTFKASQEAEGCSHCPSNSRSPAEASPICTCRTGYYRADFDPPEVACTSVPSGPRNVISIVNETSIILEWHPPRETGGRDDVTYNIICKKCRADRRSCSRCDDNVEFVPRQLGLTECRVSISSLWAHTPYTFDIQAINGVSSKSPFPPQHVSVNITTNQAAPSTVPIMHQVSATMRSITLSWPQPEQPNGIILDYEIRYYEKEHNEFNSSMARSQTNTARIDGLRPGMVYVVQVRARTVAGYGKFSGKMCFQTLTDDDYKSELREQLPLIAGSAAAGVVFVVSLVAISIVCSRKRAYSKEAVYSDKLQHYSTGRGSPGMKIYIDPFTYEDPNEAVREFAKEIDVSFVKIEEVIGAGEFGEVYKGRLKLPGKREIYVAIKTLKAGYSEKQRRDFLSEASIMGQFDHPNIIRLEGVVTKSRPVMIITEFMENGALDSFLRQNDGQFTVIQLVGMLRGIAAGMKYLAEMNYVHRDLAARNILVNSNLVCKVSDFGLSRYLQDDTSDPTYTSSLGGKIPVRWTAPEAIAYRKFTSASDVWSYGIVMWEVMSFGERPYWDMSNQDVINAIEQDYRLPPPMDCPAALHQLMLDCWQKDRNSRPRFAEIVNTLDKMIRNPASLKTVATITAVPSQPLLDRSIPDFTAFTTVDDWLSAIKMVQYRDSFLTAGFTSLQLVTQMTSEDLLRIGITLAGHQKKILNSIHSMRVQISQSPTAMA

[4] = biological target: T2, Serine/threonine-protein kinase ICK (Homo sapiens) (UniProt Q9UPZ9); details: at 10 µM
T2 sequence (whole entry): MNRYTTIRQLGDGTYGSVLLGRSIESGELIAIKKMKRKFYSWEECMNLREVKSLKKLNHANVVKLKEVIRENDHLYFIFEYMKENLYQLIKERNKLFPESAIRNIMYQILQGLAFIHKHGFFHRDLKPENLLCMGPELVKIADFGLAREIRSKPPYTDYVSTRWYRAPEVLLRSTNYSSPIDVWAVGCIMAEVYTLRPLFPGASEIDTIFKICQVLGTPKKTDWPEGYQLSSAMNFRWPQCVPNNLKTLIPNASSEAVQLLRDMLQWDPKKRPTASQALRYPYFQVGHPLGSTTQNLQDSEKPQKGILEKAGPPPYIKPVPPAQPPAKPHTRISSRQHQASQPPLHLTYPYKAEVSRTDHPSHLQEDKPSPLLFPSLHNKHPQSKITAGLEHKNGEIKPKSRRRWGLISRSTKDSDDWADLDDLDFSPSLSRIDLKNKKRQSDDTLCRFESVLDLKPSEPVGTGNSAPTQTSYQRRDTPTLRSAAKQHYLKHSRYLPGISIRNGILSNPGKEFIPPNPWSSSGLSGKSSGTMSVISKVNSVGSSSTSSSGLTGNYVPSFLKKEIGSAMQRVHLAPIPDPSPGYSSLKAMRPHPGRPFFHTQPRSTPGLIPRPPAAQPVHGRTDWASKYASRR

[5] = biological target: Insulin-like growth factor 1 receptor (Homo sapiens, UniProt P08069); assay: Selectivity interaction (KinomeScan (DiscoverX)) EUB0000229b IGF1R; details: at 10 µM
[6] = biological target: T3, Tyrosine-protein kinase JAK3 (Homo sapiens) (UniProt P52333); assay: Selectivity interaction (Kinase panel (Carna Biosciences)) EUB0001542aTs JAK3; details: at 1 µM
T3 sequence (whole entry): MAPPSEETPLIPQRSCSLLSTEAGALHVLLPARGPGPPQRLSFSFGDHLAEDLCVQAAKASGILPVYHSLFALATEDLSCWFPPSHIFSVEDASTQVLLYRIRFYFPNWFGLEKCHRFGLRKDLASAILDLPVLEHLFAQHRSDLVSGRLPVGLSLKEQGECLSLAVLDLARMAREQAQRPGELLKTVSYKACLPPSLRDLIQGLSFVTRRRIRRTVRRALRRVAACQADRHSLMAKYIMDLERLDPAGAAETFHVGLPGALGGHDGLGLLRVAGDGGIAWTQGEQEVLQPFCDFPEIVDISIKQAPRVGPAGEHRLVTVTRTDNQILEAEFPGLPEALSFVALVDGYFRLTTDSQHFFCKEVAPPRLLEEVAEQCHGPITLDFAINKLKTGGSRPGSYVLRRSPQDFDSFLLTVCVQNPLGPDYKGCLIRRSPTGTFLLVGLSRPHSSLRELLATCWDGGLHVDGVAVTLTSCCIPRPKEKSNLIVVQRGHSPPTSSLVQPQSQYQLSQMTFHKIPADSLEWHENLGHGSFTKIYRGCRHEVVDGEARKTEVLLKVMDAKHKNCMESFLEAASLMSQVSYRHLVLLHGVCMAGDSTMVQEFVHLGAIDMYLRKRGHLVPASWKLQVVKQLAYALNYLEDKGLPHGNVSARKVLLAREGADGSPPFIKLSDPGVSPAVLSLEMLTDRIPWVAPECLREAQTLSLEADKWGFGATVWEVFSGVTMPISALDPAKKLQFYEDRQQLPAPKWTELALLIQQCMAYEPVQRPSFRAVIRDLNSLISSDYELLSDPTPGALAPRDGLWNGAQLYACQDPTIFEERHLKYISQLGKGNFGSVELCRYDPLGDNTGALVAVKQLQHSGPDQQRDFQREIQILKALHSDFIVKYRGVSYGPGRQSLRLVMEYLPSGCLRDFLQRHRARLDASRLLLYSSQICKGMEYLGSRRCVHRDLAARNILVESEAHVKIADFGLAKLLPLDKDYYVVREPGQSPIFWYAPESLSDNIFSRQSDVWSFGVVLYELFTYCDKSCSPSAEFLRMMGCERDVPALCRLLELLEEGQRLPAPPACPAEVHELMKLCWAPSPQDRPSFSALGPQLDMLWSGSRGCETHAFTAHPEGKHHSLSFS

[7] = biological target: Serine/threonine-protein kinase Nek6 (Homo sapiens) (UniProt Q9HC98); assay: Selectivity interaction (KinomeScan (DiscoverX)) EUB0000695a NEK6; details: at 100 nM
Serine/threonine-protein kinase Nek6 (Homo sapiens), sequence (Q9HC98 whole entry): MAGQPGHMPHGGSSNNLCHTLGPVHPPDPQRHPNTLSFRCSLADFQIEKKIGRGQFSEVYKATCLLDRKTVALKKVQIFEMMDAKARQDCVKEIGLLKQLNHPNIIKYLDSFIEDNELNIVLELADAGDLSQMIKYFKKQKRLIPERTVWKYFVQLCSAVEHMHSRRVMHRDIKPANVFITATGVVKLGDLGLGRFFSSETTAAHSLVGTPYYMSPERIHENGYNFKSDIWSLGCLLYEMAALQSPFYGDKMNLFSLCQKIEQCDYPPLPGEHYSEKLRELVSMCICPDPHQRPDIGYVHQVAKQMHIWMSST

Non-receptor tyrosine-protein kinase TYK2, sequence (P29597 whole entry): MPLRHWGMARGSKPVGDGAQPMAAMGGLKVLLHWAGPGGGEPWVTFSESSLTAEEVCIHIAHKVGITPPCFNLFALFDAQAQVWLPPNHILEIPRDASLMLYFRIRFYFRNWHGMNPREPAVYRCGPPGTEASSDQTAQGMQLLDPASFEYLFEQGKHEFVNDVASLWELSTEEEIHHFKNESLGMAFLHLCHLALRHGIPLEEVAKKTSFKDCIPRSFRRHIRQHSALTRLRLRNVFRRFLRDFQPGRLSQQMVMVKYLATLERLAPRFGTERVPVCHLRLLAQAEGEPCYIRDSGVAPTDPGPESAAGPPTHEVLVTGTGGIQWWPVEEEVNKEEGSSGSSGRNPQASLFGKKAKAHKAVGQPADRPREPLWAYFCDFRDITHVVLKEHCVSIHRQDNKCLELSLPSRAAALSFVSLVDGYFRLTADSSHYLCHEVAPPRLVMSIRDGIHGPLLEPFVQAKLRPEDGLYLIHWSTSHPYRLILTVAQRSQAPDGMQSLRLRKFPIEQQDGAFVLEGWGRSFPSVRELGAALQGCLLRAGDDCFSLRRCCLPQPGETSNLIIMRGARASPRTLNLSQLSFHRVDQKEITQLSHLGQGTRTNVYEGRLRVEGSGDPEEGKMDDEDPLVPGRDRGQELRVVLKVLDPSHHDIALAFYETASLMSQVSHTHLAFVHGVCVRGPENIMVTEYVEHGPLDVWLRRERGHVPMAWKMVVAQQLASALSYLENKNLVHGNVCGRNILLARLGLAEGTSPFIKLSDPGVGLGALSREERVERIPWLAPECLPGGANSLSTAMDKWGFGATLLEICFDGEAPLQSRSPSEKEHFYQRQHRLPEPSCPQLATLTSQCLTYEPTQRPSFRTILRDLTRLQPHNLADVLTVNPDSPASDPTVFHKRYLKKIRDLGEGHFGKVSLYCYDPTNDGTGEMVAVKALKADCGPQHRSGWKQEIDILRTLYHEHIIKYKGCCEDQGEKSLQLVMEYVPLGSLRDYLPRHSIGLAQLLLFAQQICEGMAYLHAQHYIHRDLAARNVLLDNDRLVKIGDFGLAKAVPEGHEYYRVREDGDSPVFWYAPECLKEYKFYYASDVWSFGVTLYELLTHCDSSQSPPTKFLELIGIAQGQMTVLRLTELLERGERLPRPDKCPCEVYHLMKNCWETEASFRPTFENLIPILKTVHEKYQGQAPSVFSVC
Insulin-like growth factor 1 receptor, sequence (P08069 31-736 limits assumed): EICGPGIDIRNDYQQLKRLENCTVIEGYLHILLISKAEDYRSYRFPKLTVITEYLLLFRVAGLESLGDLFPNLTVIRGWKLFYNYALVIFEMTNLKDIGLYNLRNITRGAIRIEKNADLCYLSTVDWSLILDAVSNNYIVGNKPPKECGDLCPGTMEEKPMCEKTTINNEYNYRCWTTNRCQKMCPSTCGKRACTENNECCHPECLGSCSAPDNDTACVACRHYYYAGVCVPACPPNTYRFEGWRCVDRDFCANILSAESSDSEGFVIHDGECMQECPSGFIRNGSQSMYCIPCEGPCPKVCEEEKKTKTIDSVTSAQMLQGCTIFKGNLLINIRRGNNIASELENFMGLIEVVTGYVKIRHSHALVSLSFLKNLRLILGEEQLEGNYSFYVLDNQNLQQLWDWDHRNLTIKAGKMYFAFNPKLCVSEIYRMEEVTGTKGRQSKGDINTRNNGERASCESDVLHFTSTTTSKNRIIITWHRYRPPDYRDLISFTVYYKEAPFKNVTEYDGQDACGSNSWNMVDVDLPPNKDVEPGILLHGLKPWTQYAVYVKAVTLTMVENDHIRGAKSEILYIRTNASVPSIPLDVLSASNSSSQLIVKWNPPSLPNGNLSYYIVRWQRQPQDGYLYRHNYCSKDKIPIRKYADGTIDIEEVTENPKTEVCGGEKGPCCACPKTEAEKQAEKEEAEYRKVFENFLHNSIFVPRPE
Insulin-like growth factor 1 receptor, sequence (P08069 741-1367 limits assumed): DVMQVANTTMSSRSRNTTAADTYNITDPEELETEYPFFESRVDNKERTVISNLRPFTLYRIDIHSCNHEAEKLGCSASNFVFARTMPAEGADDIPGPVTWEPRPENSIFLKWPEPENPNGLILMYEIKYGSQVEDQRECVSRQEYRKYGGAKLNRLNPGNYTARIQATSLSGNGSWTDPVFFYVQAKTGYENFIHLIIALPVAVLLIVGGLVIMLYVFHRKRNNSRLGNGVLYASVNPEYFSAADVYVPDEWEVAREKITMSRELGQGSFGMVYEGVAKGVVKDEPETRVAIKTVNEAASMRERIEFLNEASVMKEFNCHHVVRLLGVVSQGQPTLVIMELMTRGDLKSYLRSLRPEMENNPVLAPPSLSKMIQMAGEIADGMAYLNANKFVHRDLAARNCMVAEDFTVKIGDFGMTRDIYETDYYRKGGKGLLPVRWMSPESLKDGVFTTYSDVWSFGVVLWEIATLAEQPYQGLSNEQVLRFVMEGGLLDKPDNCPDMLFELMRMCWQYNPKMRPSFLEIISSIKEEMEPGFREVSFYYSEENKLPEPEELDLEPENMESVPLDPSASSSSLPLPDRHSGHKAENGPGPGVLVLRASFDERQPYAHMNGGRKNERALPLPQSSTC
RAC-beta serine/threonine-protein kinase (Homo sapiens), sequence (P31751 whole entry): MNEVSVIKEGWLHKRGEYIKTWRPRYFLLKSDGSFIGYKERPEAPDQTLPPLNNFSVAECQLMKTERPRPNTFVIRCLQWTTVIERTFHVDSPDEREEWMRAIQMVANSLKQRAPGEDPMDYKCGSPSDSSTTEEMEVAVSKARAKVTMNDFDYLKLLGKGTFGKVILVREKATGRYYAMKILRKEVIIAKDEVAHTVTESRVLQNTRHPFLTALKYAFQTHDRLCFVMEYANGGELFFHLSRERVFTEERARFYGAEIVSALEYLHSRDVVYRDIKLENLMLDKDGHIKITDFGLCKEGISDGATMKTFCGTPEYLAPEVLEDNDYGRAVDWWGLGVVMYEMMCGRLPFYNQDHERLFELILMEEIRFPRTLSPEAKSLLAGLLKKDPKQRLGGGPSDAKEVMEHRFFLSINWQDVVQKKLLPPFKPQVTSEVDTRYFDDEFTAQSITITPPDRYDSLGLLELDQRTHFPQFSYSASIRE

CCN(CC)CCCCNc1ncc2cc(-c3cc(OC)cc(OC)c3)c(NC(=O)NC(C)(C)C)nc2n1
% of control [1]: 100%

CC(=O)Nc1cccc(-n2c(=O)n(C3CC3)c(=O)c3c(Nc4ccc(I)cc4F)n(C)c(=O)c(C)c32)c1
% of control [2]: 103%

C=CC(=O)Nc1cc(-n2c(=O)ccc3cnc4ccc(-c5ccc(NS(C)(=O)=O)cc5)cc4c32)ccc1C
% of control ([3]; at 1 µM): 100% | % of control ([3]; at 10 µM): 100%

Cc1cc([C@@H](C)Nc2ccccc2C(=O)O)c2nc(N3CCOCC3)cc(=O)n2c1 [AZD-6482]
% of control [4]: 100%

COc1cc(N(C)c2ccnc3ccc(C(F)(F)F)cc23)cc(OC)c1OC
% binding [5]: 93%

Cn1cc(Nc2nccc(N3CC4CCC(C3)N4C(=O)[C@@H]3CC3(F)F)n2)cn1
% of inhibition [6]: 92%

Cc1cc(F)c(C(=O)Nc2cccc(-c3nncn3C(C)C)n2)cc1-n1cnc(C2CC2)c1
% of control [7]: 100%
